Laboratory results reported in paper PMC10605077, “In Vitro and In Silico Antiviral Activity of Di-Halogenated Compounds Derived from L-Tyrosine against Human Immunodeficiency Virus 1 (HIV-1)” (Current Issues in Molecular Biology, 2023).
“Also recorded” adds a separate entry of the source.

Tests used:
HIV-1 BaL [1] = experiment: Anti-HIV activity in PBMC, p24 ELISA of supernatant; format: cell-based; details: Human immunodeficiency virus 1, BAL, PBMC, AZT (10 µM); read-out: inhibition of HIV-1 BaL in PBMC, extracellular p24 ELISA
PBMC = experiment: Viability assay of PBMC, flow cytometry with viability dye; format: cell-based, Human; details: PBMCs
Experimental: (§1) PBMCs were thawed and let in the culture in RPMI with 10% fetal bovine serum (FBS) (Gibco, Grand Island, NY, USA) for 24 h before each experiment. Cells were stimulated for 48 h with 8 μg/mL of Phytohemagglutinin-PHA (Sigma-Aldrich, St. Louis, MO, USA) and 50 UI/mL of IL-2 (Peprotech, Rocky Hill, CT, USA). In the presence of various concentrations of di-halogenated compounds derived from L-Tyrosine, 2 × 10^5 cells per well were treated and resuspended in 200 µL of fresh medium with 20 UI/mL of IL-2 and incubated in 96-well culture plates for 7 days. After 7 days post-treatment, cell viability was determined using flow cytometry. Briefly, cells were stained with fixable viability dye eFluor 506 (eBioscience, Leicestershire, UK) as detailed in the manufacturer’s protocol for 30 min in the dark. Later, cells were washed and resuspended in PBS, and the percentage of viable cells was measured instead in the LS Fortessa cytometer (BD Biosciences, Franklin Lakes, NJ, USA). Data were analyzed using FlowJo version 10.5.3 (FlowJo, LLC, Ashland, OR, USA).

TZM-bl cells = experiment: MTT cytotoxicity assay; format: cell-based
Experimental: (§2) The in vitro cytotoxic effect of the di-halogenated compounds on TZM-bl cells was determined with the MTT (3-(4,5-Dimethylthiazol-2-yl)-2,5-diphenyltetrazolium bromide) assay (Sigma-Aldrich, St. Louis, MO, USA). For this purpose, 1.2 × 10^5 cells/well were seeded in 96-well plates, which were incubated at 37 °C and 5% CO2 for 24 h. DMEM was used as a negative control and serial two-fold dilutions of the compounds were performed at 9.37 to 300 μM in DMEM supplemented with 5% FBS. A total of 100 μL/well of each dilution was added and incubated for 48 h. Subsequently, the cells were washed 2 times with 1X PBS, and 30 μL of MTT solution (2 mg/mL) was added and incubated for 2 h at 37 °C, in a light-protected culture. Then, 100 µL of DMSO was added to dissolve the formazan crystals, placed in shaking for 15 min, and absorbance reading was performed at 570 nm, using the Microplate Spectrophotometer (Thermo Scientific™ Multiskan™ GO, Waltham, MA, USA). Two independent experiments evaluated each experimental condition in quadruplicate (n = 8). The percentage of viability was calculated concerning the absorbance of the controls without a compound (100% viability). The 50% cytotoxic concentration was defined as the concentration of each compound that can reduce cell viability to 50% of the untreated cell control. CC50 was calculated and analyzed with GraphPad Prism version 8.0.1 (GraphPad Software, Inc., San Diego, CA, USA).

HIV-1 BaL [2] = experiment: Anti-HIV activity in PBMC, intracellular p24 by flow cytometry; format: cell-based
Experimental: In the presence of various concentrations of the most bioactive compounds, 1×10^6 PBMCs previously stimulated with 8 μg/mL of PHA and 50UI/mL of IL-2 were treated for 1 h. […] After spinoculation, cells were washed twice with PBS 1x to remove free virions, and then, fresh medium supplemented with 20 UI/mL of IL-2, with or without the di-halogenated compounds derived from L-Tyrosine dilutions, was added. Cells were plated in 96-well culture plates and incubated for 7 days. […] In addition, antiviral activity was also assessed by measuring intracellular p24 in harvested cells. Briefly, cells were stained with fixable viability dye eFluor 506 (eBioscience, Leicestershire, UK), CD3 (UCHT1; Thermo Scientific, Wilmington, DE, USA), CD4 (RPA-T4; BD Biosciences, San Jose, CA, USA), and p24 PE (KC57; Beckman Coulter, Pasadena, CA, USA), as detailed in the manufacturer’s protocol. Later, cells were washed and resuspended in PBS, and the lecture was measured instead in the LS Fortessa cytometer (BD Biosciences, Franklin Lakes, NJ, USA). Data were analyzed using FlowJo version 10.5.3 (FlowJo, LLC, Ashland, OR, USA).

[3] = test system: HIV-GFP-VSV-G reporter virus; experiment: microbe, parasite or virus in culture; format: cell-based, HIV-1
HIV-1 BaL (R5) = experiment: Anti-HIV activity in infected TZM-bl cells (luciferase), pre- and post-infection treatment; format: cell-based, Human Immunodeficiency Virus Type 1 (HIV-1)
Experimental: (§3) TZM-bl cells were plated in a flat-bottom 96-well plate (Corning Inc., Corning, New York, NY, USA) at the concentration of 1.2 × 10^5 cells/well and incubated for 24 h at 37 °C before the addition or not of each compound at non-cytotoxic concentrations (pre-infection treatment). Then, 1 h later the treatment was removed, and the infection was performed by adding 10 ng/mL of HIV-1IIIB p24 (X4) or 2 ng/mL of HIV-1 BaL (R5). After 3 h, the virus was removed and washed, and the compound dilutions were added again (post-infection treatment). Additionally, three wells were left for the negative control (cells without treatment or infection), the positive control of infection (cells infected with the virus without treatment), and the positive control of inhibition (AZT). Antiviral activity was quantified 48 h after treatment by measuring luciferase activity, which is directly proportional to the number of infectious virus particles in the sample [23]. The luciferase activity was quantified via luminescence emitted by the cells using Bright-GloTM Luciferase Assay System (Promega Corp., Madison, WI, USA), following the manufacturer’s instructions. Briefly, 100 μL of the reagent was added to 100 μL of TZM-bl cells and incubated for at least 2 min, protected from light. Relative light units (RLUs) were measured using the multi-mode plate reader (Thermo ScientificTM VarioskanTM LUX). Each experimental condition was performed in triplicate in two independent experiments (n = 6). The percentage inhibition was calculated as follows: 100 − (RLU of treated cells − RLU of uninfected cells/RLU of infection control − RLU of uninfected cells) × 100.

HIV-1IIIB (X4) = experiment: as above; format: cell-based, Human Immunodeficiency Virus Type 1 (HIV-1); details: for SI: selectivity index against HIV-1IIIB (CC50 and IC50 of Table 4)
Experimental: as §3

MTT cytotoxicity assay = format: cell-based; details: human; TZM-bl cells, MTT, 48 h
Experimental: as §2

[4] = Viability assay of PBMC, flow cytometry with viability dye; format: cell-based, Human; details: human, PBMC stimulated with PHA and IL-2; all concentrations tested (18.75 μM up to 150 μM), 7 days; read-out: viability level on PBMCs
Experimental: as §1

[5] = Human immunodeficiency virus 1, TZM-bl, read-out: percentage inhibition of HIV-GFP-VSV-G replication
[6] = Human immunodeficiency virus 1, BAL, TZM-bl cells, read-out: Percentage inhibition of HIV-1 BaL replication
[7] = Human immunodeficiency virus 1, TZM-bl, TZM-bl cells, read-out: Percentage inhibition of HIV-1IIIB (X4 strain) replication

With `Cc1cn([C@H]2C[C@H](N=[N+]=[N-])[C@@H](CO)O2)c(=O)[nH]c1=O` [AZT, Zidovudine, reference compound] the inhibition at 10 µM (HIV-1 BaL [1]) was > 90%, the toxicity in words (PBMC) was “Neither the viral inhibition control (AZT) nor the solvent (DMSO) proved toxic” and the toxicity in words (TZM-bl cells) was “Neither the viral inhibition control (AZT) nor the solvent (DMSO) was toxic”. For the same compound, the inhibition at 10 µM (HIV-1 BaL [2]; Human immunodeficiency virus 1, BAL, PBMC, AZT (10 µM), positive control, read-out: inhibition of HIV-1 BaL replication in PBMC, flow cytometry (intracellular p24)) was 99.4%, the inhibition at 10 µM [3, 5] was 93.2% and the inhibition at 10 µM (HIV-1 BaL (R5); Human immunodeficiency virus 1, BAL, TZM-bl, read-out: inhibition of viral infection (HIV-1 BaL)) was > 90%. The inhibition at 10 µM (HIV-1IIIB (X4); Human immunodeficiency virus 1, TZM-bl, read-out: inhibition of virus infections (HIV-1IIIB)) was > 90%.

With `C[N+](C)(C)CCc1cc(Br)c(O)c(Br)c1` [YDB-3M] the CC50 at 48 h (MTT cytotoxicity assay) was ~101 µM, the cytotoxicity level (TZM-bl cells; 150 μM, 48 h) was “higher level of cytotoxicity” and the “anti-HIV activity against R5 strain in words” value (HIV-1 BaL (R5); HIV-1 BaL, TZM-bl cells) was “had no activity; also recorded: did not show significant anti-HIV activity”. It also gave an inhibition at 18 µM (HIV-1 BaL (R5); [6]) of 7.2%, an inhibition at 37 µM (HIV-1 BaL (R5); [6]) of -10.2% and an inhibition at 18 µM (HIV-1IIIB (X4); [7]) of 39.2%. It also gave an inhibition at 37 µM (HIV-1IIIB (X4); [7]) of 1.8%, an inhibition at 75 µM (HIV-1IIIB (X4); [7]) of -19.4% and an SI (HIV-1IIIB (X4)) of ~32.65.

In the case of `COc1c(Br)cc(C[C@@H](C(=O)O)N(C)C)cc1Br` [TODB-2M], the viability at 7 days [4] is reported as > 90%, the CC50 at 48 h (MTT cytotoxicity assay) is reported as 165 µM and the inhibition at 75 µM (HIV-1 BaL [2]; Human immunodeficiency virus 1, BAL, PBMC, 168 h, 75 μM, 7 days, read-out: inhibition of HIV-1 BaL replication in PBMC, flow cytometry (intracellular p24)) is reported as 56.5%. The inhibition at 150 µM (HIV-1 BaL [2]; Human immunodeficiency virus 1, BAL, PBMC, 168 h, 150 µM, 7 days, read-out: inhibition of HIV-1 BaL replication in PBMC, flow cytometry (intracellular p24)) was > 60%, the “inhibition of HIV-1 BaL replication in PBMC, flow cytometry (intracellular p24)” value (HIV-1 BaL [2]; all concentrations, 7 days) was “over 50%” and the SI [3] was 1.16. The IC50 ([3]; Human immunodeficiency virus 1, TZM-bl, 48 h) was 142 µM, the inhibition at 150 µM [3, 5] was 44.2% and the IC50 (HIV-1 BaL (R5); Human immunodeficiency virus 1, BAL, TZM-bl, 48 h, HIV-1 BaL (R5), TZM-bl cells, luciferase) was 114 µM. The inhibition at 18 µM (HIV-1 BaL (R5); [6]) was 36.3%, the inhibition at 37 µM (HIV-1 BaL (R5); [6]) was 34.1% and the inhibition at 75 µM (HIV-1 BaL (R5); Human immunodeficiency virus 1, BAL, 75 µM, TZM-bl cells, read-out: Percentage inhibition of HIV-1 BaL replication) was 37.7%. For the same compound, the inhibition at 150 µM (HIV-1 BaL (R5); Human immunodeficiency virus 1, BAL, 150 µM, TZM-bl cells, read-out: Percentage inhibition of HIV-1 BaL replication) was 45.8%, the SI (HIV-1 BaL (R5); selectivity index against HIV-1 BaL (CC50 and IC50 of Table 3)) was 1.45 and the inhibition at 18 µM (HIV-1IIIB (X4); [7]) was 22.2%. It also gave an inhibition at 37 µM (HIV-1IIIB (X4); [7]) of -4%, an inhibition at 75 µM (HIV-1IIIB (X4); [7]) of 9.9% and an inhibition at 150 µM (HIV-1IIIB (X4); Human immunodeficiency virus 1, TZM-bl, 150 µM, TZM-bl cells, read-out: Percentage inhibition of HIV-1IIIB (X4 strain) replication) of 95.9%. For the same compound, the IC50 (HIV-1IIIB (X4); Human immunodeficiency virus 1, HIV-1IIIB (X4), TZM-bl cells, luciferase, 48 h) was ~82.7 µM and the SI (HIV-1IIIB (X4)) was ~1.99.
